Reference: paper PMC12583704 (Signal Transduction and Targeted Therapy, 2025)

System: wild-type GIST
Experiment: SJ-0003 preliminary efficacy in wild-type GIST subjects
Format: in vivo, human
Settings: 6 wild-type GIST subjects, as of August 2021
Protocol: Guangzhou HealthQuest Pharma Inc. HQP1351 […]
as the dosage for adult subjects after discussion between the inves tigator and the sponsor, and no randomization at 30 mg, 40 mg or 50 mg QOD will be performed.
1.6 Risk-benefit and Ethical Assessment […]
no medicine available for treatment. Given that the National Medical Products Administration encourages the inclusion of adolescents in tumor clinical trials as much as possible, after the preliminary adult data (currently there are safety data and preliminary PK data and efficacy data from more than 300 subjects) are available, it is planned to include adolescent wild -type GIST subjects over 12 years old without standard treatment in clinical trials for adult so as to enable these adolescent GIST patients to have the opportunity to enter clinical trials, obtain their clinical data as soon as possible, and solve the problem of no medicine available for these […]
More information about the known and expected benefits and risks of HQP1351 can be found in the relevant section of the Investigator’s Brochure (IB) for HQP1351. The sponsor, CRA, and investigators will conduct the study in accordance with the study protoc ol, the Good […]
(1 picture or pasted object on this page, not shown here)

Cc1ccc(C(=O)Nc2ccc(CN3CCN(C)CC3)c(C(F)(F)F)c2)cc1C#Cc1cnc2[nH]ncc2c1 [Olverembatinib, 3-[(1H-pyrazolo[3,4-b]pyridin-5-yl)ethynyl]-4-methyl-N-{4-[(4-methylpiperazin-1-yl)methyl]-3-(trifluoromethyl)phenyl]benzamide]
subjects with PD on Day 52 of medication: 1 subject | subjects with SD followed up for more than 11 cycles, up to 31 cycles: 3 subjects | subjects with SD when followed up to Cycle 3: 1 subject | subjects with PR (PR in Cycle 9, remained PR to Cycle 13): 1 subject
